Measured values reported in patent US9650616B2, “Methods for increasing grain yield” (University of Florida Research Foundation, Inc., priority 2014, dated 2017).
Changes are numbered by the printed parent chain. Where two headings read alike, the source gives them in different places.

Experiments:
[1] = target: T1, maize endosperm AGPase variant T142F (Zea mays, UniProt P55241+Q84PF5, T142F); details: cited from earlier work
T1 construct: data of Boehlein et al., 2013
T1 sequence (P55241 46-516 T142F): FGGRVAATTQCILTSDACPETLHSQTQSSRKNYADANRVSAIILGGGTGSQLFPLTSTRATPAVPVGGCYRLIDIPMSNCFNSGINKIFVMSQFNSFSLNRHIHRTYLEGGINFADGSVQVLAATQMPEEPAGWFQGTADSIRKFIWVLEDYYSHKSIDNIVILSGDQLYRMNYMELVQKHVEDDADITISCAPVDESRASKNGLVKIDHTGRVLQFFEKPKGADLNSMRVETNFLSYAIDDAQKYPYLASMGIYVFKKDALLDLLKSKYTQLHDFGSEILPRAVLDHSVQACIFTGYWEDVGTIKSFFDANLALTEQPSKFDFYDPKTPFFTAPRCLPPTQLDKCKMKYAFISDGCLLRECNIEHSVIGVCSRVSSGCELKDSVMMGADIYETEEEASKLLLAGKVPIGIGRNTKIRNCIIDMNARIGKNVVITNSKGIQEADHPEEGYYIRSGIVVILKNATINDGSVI
T1 sequence (Q84PF5 1-474): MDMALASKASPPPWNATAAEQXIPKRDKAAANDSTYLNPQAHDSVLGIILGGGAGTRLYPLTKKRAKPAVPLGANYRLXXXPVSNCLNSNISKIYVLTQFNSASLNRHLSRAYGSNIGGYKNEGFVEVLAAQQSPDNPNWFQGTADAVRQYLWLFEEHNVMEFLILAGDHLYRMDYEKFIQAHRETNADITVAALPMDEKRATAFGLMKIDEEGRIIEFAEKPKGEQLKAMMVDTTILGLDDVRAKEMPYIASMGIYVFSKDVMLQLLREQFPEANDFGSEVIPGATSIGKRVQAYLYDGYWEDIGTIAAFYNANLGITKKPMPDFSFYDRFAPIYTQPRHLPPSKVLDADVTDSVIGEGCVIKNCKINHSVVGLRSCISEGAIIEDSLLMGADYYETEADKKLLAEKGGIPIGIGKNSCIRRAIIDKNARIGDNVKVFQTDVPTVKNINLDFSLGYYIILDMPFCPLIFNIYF

[2] = test system: maize endosperm AGPase, wild type; details: cited from earlier work
[3] = test system: maize endosperm AGPase, evolutionary mutant SH2-E (SH2E); details: absence of 3-PGA, ATP varied, Pi inhibition, NC, read-out: Km (ATP); cited from earlier work
[4] = target: T2, maize endosperm AGPase, wild type (Bt2/Sh2) (Zea mays, UniProt P55241+Q84PF5); experiment: Apparent kinetic constants with 3-PGA, 37° C., wild type; format: biochemical; details: read-out: ATP Km, Wt
T2 sequence (P55241 46-516): T1 sequence (P55241 46-516 T142F) with F97T
T2 sequence (Q84PF5 1-474): T1 sequence (Q84PF5 1-474)
Description: The small and large subunit plasmids of maize endosperm AGPase (pMONcBt2 and pMONcSh2, respectively) (Giroux et al., 1996) were expressed in E. coli AC70R1-504 cells (Iglesias et al., 1993) as previously described (Boehlein et al., 2008).
An endpoint assay was used to determine the rate of the AGPase reaction by coupling the formation of PPi to a decrease in NADH concentration (Boehlein et al., 2008). […] The Michaelis constants (Km) were obtained by varying one substrate in the presence of saturating concentrations of the second substrate. The activation constants were obtained by varying the activator at fixed levels of both substrates. All reactions were performed at 37° C. and mixes were prewarmed before starting the reaction with enzyme. […] The absorbance at 340 nm was monitored after 30 min and the amount of PPi produced was determined from a standard curve using PPi in complete reaction mixtures lacking AGPase. Blank samples contained complete reaction mixtures without enzyme and the change in absorbance between the blank and the reaction was used to calculate the amount of PPi produced.
The apparent Michaelis constant and maximum velocity of each reaction was calculated from a V vs. S plots using nonlinear regression analysis and the following equation, v=VmaxS/(Km+S), where v is the measured velocity, Vmax is the maximum velocity, S is the substrate concentration. […]

For `Nc1ncnc2c1ncn2[C@@H]1O[C@H](COP(=O)(O)OP(=O)(O)OP(=O)(O)O)[C@@H](O)[C@H]1O` [ATP], the kcat ([1]; absence of 3-PGA) is given as 53.8 s⁻¹, the Km ([1]; read-out: ATP Km, absence of 3-PGA) is given as 1.73 mM and the Kd ([1]; read-out: Kia (dissociation constant for the E-ATP complex), absence of 3-PGA) is given as 1.5 mM. The Km ([2]; Maize wt, absence of 3-PGA, ATP varied, Pi inhibition, P-MT, read-out: Km (ATP)) was 20.4 mM, the Km ([2]; wt maize AGPase, absence of activator, Pi inhibition assay, read-out: Km for both substrates) was > 20 mM and the Km [3] was 970 µM. It also gave a Km [4] of 69 µM.
